Assay results from patent publication US20220362227A1, “COMPOSITION OF PHYTONUTRIENTS FOR DIABETES MANAGEMENT” (ROSEMAN UNIVERSITY OF HEALTH SCIENCES, priority 2021, published 2022).
Blank lines part the entries; values can stand above or below the molecule they belong to.

What was measured:
Akt2 = assay: Screening for insulin-sensitizing phytonutrients: cIEF immunoassays of Akt2 phosphorylation; format: cell-based, human; conditions: for increase of insulin-stimulated pAkt2 (Ser473) phosphorylation: together with 100 nM insulin, compared to insulin alone, cIEF; for Akt2 phosphorylation on cIEF electropherogram: treatment alone, 30 minutes, versus untreated control; for EC50: half-maximal effective concentration, primary human preadipocytes
Excerpt: (§1) Mapping Akt Isoforms Using Capillary Isoelectric Focusing (cIEF) Immunoassays. cIEF immunoassays separate proteins in total cell extracts (TCEs) by their isoelectric points (pIs) in nano-capillaries. The positions of the proteins are stabilized via UV-irradiated crosslinking of proteins to the sidewalls of the capillaries. A primary antibody that recognizes a specific protein of interest is introduced to individual capillaries. Then a secondary antibody linked to horseradish peroxidase is introduced. Following the introduction of the chemiluminescent substrates, the distribution of the isoforms of a protein is detected and presented graphically as electropherograms of intensity versus isoelectric points. Phosphorylation and acetylation of a protein generally leads to shifts toward lower pI values. In contrast, glycosylation of a protein generally leads to a shift toward higher pI values.
(§2) Human Primary Preadipocytes. Primary human preadipocytes were isolated from omental adipose tissues overweight and diabetic donors who were undergoing elective surgery using a previously published protocol. Primary human preadipocytes were maintained in growth media comprising Minimum Essential Medium a supplemented with 10% fetal bovine serum, 100 units/ml penicillin, and 100 μg/ml streptomycin.
(§3) Screening for Insulin-Sensitizing Phytonutrients. Primary human preadipocytes were treated for 30 minutes with 100 nM insulin (Humulin R, Eli Lilly, Indianapolis, Ind.), individual phytonutrients (Table 1 & Table 2), or combinations of insulin and phytonutrients. Total cell extracts (TCE) were collected and subjected to nanofluidic proteomic analysis including capillary isoelectric focusing (cIEF) immunoassays and capillary Western (CW) immunoassays.
(§4) Preparation of Total Cell Extracts. Approximately one million cells were incubated on ice for 10 minutes with 60 μl of lysis buffer (cat. no. 040-764, ProteinSimple, Santa Clara, Calif., USA), sonicated 4 times for 5 seconds each, mixed by rotation for 2 hours at 4° C., and centrifuged at 12,000 rpm in an Eppendorf 5430R microfuge for 20 minutes at 4° C. The supernatant was collected as the cell lysate. The total protein concentration in the cell lysate was determined with a Bradford protein assay and adjusted to a final concentration of 0.3 μg/μl with separation gradients (cat. no. Premix G2, pH 5-8, ProteinSimple, Santa Clara, Calif.) for charge-based cIEF immunoassays or to 0.4 μg/μl with denaturing buffers (cat. no. PS-ST01EZ or PS-ST03EZ, ProteinSimple) for size-based Western immunoassays.
(§5) Capillary Isoelectric Focusing Immunoassays. Cell lysates in separation gradients were loaded into 384-well assay plates (cat. no. 040-663, ProteinSimple) preloaded with primary and secondary antibodies and chemiluminescent substrates. Charge-based protein separation and detection in individual capillaries were performed using the default protocols of the NanoPro 1000 system (ProteinSimple). Hsp70 was used as the loading control. All cIEF immunoassays were performed in triplicate for each protein, and duplicate experiments were performed for each treatment condition, producing six repeated measurements per protein.

[1] = test system: primary human preadipocytes; assay: Adipogenesis assay (adipogenic biomarkers, Oil Red O staining); format: cell-based; conditions: for EC50: read-out: EC50 (anti-adipogenic phytonutrients)
Protocol: Adipogenesis Assays. Primary human preadipocytes were grown to confluence in growth media. At 2 days post-confluence, growth media were aspirated off the culture dishes and complete differentiation media were added. Complete differentiation media comprise […] with 18.5 mM glucose, HEPES (15 mM), NaHCO3 (25 mM), 100 units/ml penicillin, 100 μg/ml streptomycin, d-biotin (33 μM), pantothenate (17 μM), dexamethasone (100 nM), insulin (100 nM), rosiglitazone (1 μM), IBMX (0.5 mM), triiodothyronine (T3, 2 nM), and transferrin (10 μg/ml). On day three post-differentiation, complete differentiation media were replenished. On day seventh post-differentiation, complete differentiation media were replaced with maintenance media. Maintenance media comprise […], 100 units/ml penicillin, 100 μg/ml streptomycin, HEPES (15 mM), NaHCO3 (25 mM), d-biotin, pantothenate, insulin (10 nM), and dexamethasone (10 nM). Maintenance media were replenished on days tenth post-differentiation. Complete differentiation of preadipocytes into adipocytes were achieved on day fourteenth post-differentiation. To screen for anti-adipogenic phytonutrients, individual phytonutrients were mixed in complete differentiation media from day 0 to day 6th post-differentiation. Phytonutrients were removed together with complete differentiation media on day 7th post-differentiation following the replacement with maintenance media. Anti-adipogenic phytonutrients were identified based on their ability to: (1) suppress the expression of adipogenic biomarkers using proteomic assays of total cell extracts collected on day 6th post-differentiation, and (2) suppress intracellular lipid droplet accumulation using Oil Red O staining assays on day 14th post-differentiation.

[2] = test system: primary human preadipocytes; assay: Glucose uptake assay (2-NBDG, flow cytometry); format: cell-based; conditions: together with 100 nM insulin, compared to insulin alone, 30 minutes
Protocol: The glucose uptake assay used 2-NBDG, a fluorescently-labeled deoxyglucose analog, as a probe for the detection of glucose taken up by human primary preadipocytes. Flow cytometry was used to detect 2-NBDG uptake in single preadipocytes.
Glucose Uptake Assays. Primary human preadipocytes grown to 70% confluence in growth media, washed with phosphate buffered saline, and replaced with glucose-free DMEM media. Following 2 hours of incubation in glucose-free DMEM media, preadipocytes were treated with 100 μg/ml of 2-NDBG fluorescent glucose analog and insulin (100 nM) or phytonutrients (EC50) for 30 minutes. Preadipocytes were collected and analyzed using the Acuri C6 flow cytometer (BD Biosciences, San Jose, Calif.) and the 485 nm excitation and 535 nm emission filters.

Akt = assay: Capillary Western and cIEF immunoassays of pAkt (Thr308), pAkt (Thr450), pAkt (Ser473); format: cell-based, human; conditions: for increase of pAkt (Ser473) phosphorylation / increase of pAkt (Thr308) phosphorylation / increase of pAkt (Thr450) phosphorylation: 30 minutes treatment, versus untreated control, capillary Western densitometry
Protocol: as §2, §3, §4, §5
Capillary Western Immunoassays. Cell lysates in denaturing buffers were denatured at 95° C. for 5 minutes, and then transferred to assay plates (cat. no. SM-W004 or SM-W008, ProteinSimple) preloaded with blocking reagents, wash buffer, primary and secondary antibodies, and chemiluminescent substrates. Sized-based protein separation and detection in capillaries were performed using the default protocols of the Jess system (ProteinSimple). β-Actin was used as loading controls. All capillary Western immunoassays were performed in triplicate for each protein, and duplicate experiments were performed for each treatment condition, producing six repeated measurements per protein.

Akt3 = assay: cIEF immunoassays of Akt3; format: cell-based, human; conditions: for Akt3 cIEF electropherogram: treatment alone, 30 minutes, versus untreated
Excerpt: as §1, §3
as §4, with “The supernatant was collected as the cell lysate.” left out, “immunoassays. […]” for “immunoassays.”

Akt1 = assay: cIEF immunoassays of Akt1; format: cell-based, human; conditions: for Akt1 cIEF electropherogram: treatment alone, 30 minutes, versus untreated
Excerpt: as §1, §3
as §4, with “The supernatant was collected as the cell lysate.” left out, “immunoassays. […]” for “immunoassays.”

[3] = half-maximal effective concentration, primary human preadipocytes
[4] = together with insulin, compared to insulin alone

Molecule: COc1ccc2cc3[n+](cc2c1OC)CCc1cc2c(cc1-3)OCO2 [Berberine]
increase of insulin-stimulated pAkt2 (Ser473) phosphorylation (Akt2): no effect
Akt2 phosphorylation on cIEF electropherogram (Akt2): no effect
inhibition of adipogenesis ([1]; differentiating primary human preadipocytes): strong inhibitor of adipogenesis
EC50 [1, 3]: 10 µM
increase of insulin-stimulated glucose uptake by preadipocytes [2]: no effect

Molecule: O=CC=Cc1ccccc1 [Cinnamaldehyde]
increase of pAkt (Ser473) phosphorylation (Akt): no effect
increase of pAkt (Thr308) phosphorylation (Akt): no effect
increase of pAkt (Thr450) phosphorylation (Akt): 1.6 folds
increase of insulin-stimulated pAkt (Ser473) phosphorylation (Akt; together with 100 nM insulin, compared to insulin alone, cIEF and CW immunoassays): ~4 folds
EC50 (Akt2): 40 µM
Akt2 phosphorylation on cIEF electropherogram (Akt2): new peak at pI 5.41
phosphorylation of Akt3 on cIEF electropherogram (Akt3; [4]): no observable effect
Akt3 cIEF electropherogram (Akt3): no observable effect
increase of insulin-stimulated glucose uptake by preadipocytes [2]: approximately 1.6 folds
phosphorylation of Akt1 on cIEF electropherogram (Akt1; [4]): no observable effect
Akt1 cIEF electropherogram (Akt1): no observable effect

Molecule: COc1cc(/C=C/C(=O)CC(=O)/C=C/c2ccc(O)c(OC)c2)ccc1O [Curcumin]
EC50 (Akt2): 20 µM
increase of insulin-stimulated pAkt2 (Ser473) phosphorylation (Akt2): approximately 4 folds
Akt2 phosphorylation on cIEF electropherogram (Akt2): new peak at pI 5.41
increase of insulin-stimulated glucose uptake by preadipocytes [2]: ~1.7 folds

Molecule: O=C(O[C@@H]1Cc2c(O)cc(O)cc2O[C@@H]1c1cc(O)c(O)c(O)c1)c1cc(O)c(O)c(O)c1 [Epigallocatechin Gallate]
EC50 [1, 3]: 20 µM

Molecule: O=c1c(O)c(-c2ccc(O)c(O)c2)oc2cc(O)ccc12 [Fisetin]
EC50 [1, 3]: 50 µM

Molecule: COc1ccc([C@@H]2CC(=O)c3c(O)cc(O[C@@H]4O[C@H](CO[C@@H]5O[C@@H](C)[C@H](O)[C@@H](O)[C@H]5O)[C@@H](O)[C@H](O)[C@H]4O)cc3O2)cc1O [Hesperidin]
EC50 [1, 3]: 20 µM

Molecule: insulin: 100 nM insulin (Humulin R, Eli Lilly) [reference compound]
increase of pAkt (Ser473) phosphorylation (Akt): ~5.7 folds
increase of pAkt (Thr308) phosphorylation (Akt): approximately 3 folds
increase of pAkt (Thr450) phosphorylation (Akt): ~1.6 folds
Akt2 phosphorylation on cIEF electropherogram (Akt2): two new peaks at pI 5.20 and pI 5.30
Akt3 cIEF electropherogram (Akt3): two new peaks at pI 5.03 and pI 5.12
Akt1 cIEF electropherogram (Akt1): nearly identical

Next, values leading:

EC50 [1, 3]: 20 µM
Molecule: OCc1c[nH]c2ccccc12 [Indole-3-Carbinol]

EC50 [1, 3]: 20 µM
Molecule: O=c1cc(-c2ccc(O)c(O)c2)oc2cc(O)cc(O)c12 [Luteolin]

EC50 [1, 3]: 25 µM
Molecule: O=c1c(O)c(-c2ccc(O)c(O)c2)oc2cc(O)cc(O)c12 [Quercetin]

EC50 [1, 3]: 40 µM
Molecule: Oc1ccc(C=Cc2cc(O)cc(O)c2)cc1 [Resveratrol]

EC50 (anti-adipogenic phytonutrients) [1, 3]: 100 µg/mL
Molecule: Fucoidan
